Tested on: arachidonic acid induced inflammatory response
Test: arachidonic acid induced mouse ear inflammatory oedema test (mouse ear inflammatory model), oral dosing
Assay type: in vivo
Settings: for inhibition in vivo at 3 mg/kg / inhibition in vivo at 30 mg/kg / inhibition in vivo at 10 mg/kg / inhibition in vivo at 1 mg/kg: Mus musculus, po; for inhibition (anti-inflammatory effect of the CO inhibitors): CO inhibitor alone at 1-10 mg/kg orally
Protocol: According to the test method, groups of 10 mice (25-30 g each) were dosed orally with vehicle alone (a mixture of 0.5% hydroxypropylmethylcellulose, 0.1% polysorbate 80 and water), with the 5-LO inhibitor alone, with a CO-inhibitor alone, or with a combination of 5-LO and CO inhibitors. After a period of 1 hour arachidonic acid (1 mg in 10 microlitres of acetone) was applied topically to one ear of each mouse. After a further period of 1 hour the mice were killed and a disc-shaped portion (6 mm in diameter) was punched from each ear. Comparison of the weights of the ear-discs between the arachidonic acid treated and untreated ears allows the effect of each treatment to be determined. The effect of each test compound or combination of compounds is calculated as follows ('ear weight diff.' means the mean difference in the weights of the disc-shaped portions of ear punched from the arachidonic acid-treated ear compared to the untreated ear for each mouse):- [table]

[1] = summary of Examples 1 to 10, variable

SMILES: O=C(O)Cc1ccccc1Nc1c(Cl)cccc1Cl [D, diclofenac, reference compound]
- inhibition in vivo at 3 mg/kg (Ex 8, D 3 mg/kg orally alone): 11.1%
- inhibition in vivo at 30 mg/kg (Ex 8, D 30 mg/kg orally alone): 11.4%
- inhibition in vivo at 3 mg/kg (Ex 9, D 3 mg/kg orally alone): 5.9%
- inhibition in vivo at 10 mg/kg (Ex 9, D 10 mg/kg orally alone): 4.9%
- inhibition in vivo at 30 mg/kg (Ex 9, D 30 mg/kg orally alone): 17.8%
- inhibition in vivo at 10 mg/kg (Ex 10, D 10 mg/kg orally alone): 7.4%
- inhibition in vivo at 30 mg/kg (Ex 10, D 30 mg/kg orally alone): 10.5%
- inhibition (anti-inflammatory effect of the CO inhibitors) [1]: 0 to 55%

SMILES: CC(C(=O)O)c1ccc(-c2ccccc2)c(F)c1 (stereo not shown) [F, flurbiprofen, reference compound]
- inhibition in vivo at 3 mg/kg (Ex 6, F 3 mg/kg orally alone ([1] 0 mg/kg)): 14.6%
- inhibition in vivo at 3 mg/kg (Ex 7, F 3 mg/kg orally alone ([1] 0 mg/kg)): 7.6%
- inhibition (anti-inflammatory effect of the CO inhibitors) [1]: 0 to 55%

SMILES: COc1ccc2c(c1)c(CC(=O)O)c(C)n2C(=O)c1ccc(Cl)cc1 [I, indomethacin, reference compound]
- inhibition in vivo at 10 mg/kg (Ex 1, I 10 mg/kg orally alone ([1] 0 mg/kg)): 16.9%
- inhibition in vivo at 10 mg/kg (Ex 2, I 10 mg/kg orally alone ([1] 0 mg/kg)): 27.4%
- inhibition in vivo at 3 mg/kg (Ex 3, I 3 mg/kg orally alone ([1] 0 mg/kg)): 12.8%
- inhibition in vivo at 3 mg/kg (Ex 4, I 3 mg/kg orally alone): 15.3%
- inhibition in vivo at 10 mg/kg (Ex 4, I 10 mg/kg orally alone): 55.3%
- inhibition in vivo at 3 mg/kg (Ex 5, I 3 mg/kg orally alone): 18.2%
- inhibition in vivo at 10 mg/kg (Ex 5, I 10 mg/kg orally alone): 55.6%
- inhibition in vivo at 10 mg/kg (Ex 11, I 10 mg/kg orally alone ([2] 0 mg/kg)): 30%
- inhibition in vivo at 1 mg/kg (Ex 12, I 1 mg/kg orally alone): 13%
- inhibition in vivo at 3 mg/kg (Ex 12, I 3 mg/kg orally alone): 27%
- inhibition in vivo at 10 mg/kg (Ex 12, I 10 mg/kg orally alone): 33%
- inhibition in vivo at 10 mg/kg (Ex 13, I 10 mg/kg orally alone ([3] 0 mg/kg), asterisk (*): not statistically significant): 10%
- inhibition in vivo at 10 mg/kg (Ex 14, I 10 mg/kg orally alone ([4] 0 mg/kg), asterisk (*): not statistically significant): -2.5%
- inhibition in vivo at 10 mg/kg (Ex 15, I 10 mg/kg orally alone ([5] 0 mg/kg)): 27%
- inhibition (anti-inflammatory effect of the CO inhibitors) [1]: 0 to 55%

SMILES: COC1(c2cc(F)cc(OCc3ccc4c(ccc(=O)n4C)c3)c2)CCOCC1 [[1], 6-[(3-fluoro-5-[4-methoxy-3,4,5,6-tetrahydro-2H-pyran-4-yl]phenoxy)methyl]-1-methyl-2-quinolone]
- inhibition in vivo at 1 mg/kg (Ex 1, [1] 1 mg/kg orally alone): 14.6%
- inhibition in vivo at 3 mg/kg (Ex 1, [1] 3 mg/kg orally alone): 19.1%
- inhibition in vivo at 10 mg/kg (Ex 1, [1] 10 mg/kg orally alone): 47.2%
- inhibition in vivo at 3 mg/kg (Ex 2, [1] 3 mg/kg orally alone): 9.5%
- inhibition in vivo at 10 mg/kg (Ex 2, [1] 10 mg/kg orally alone): 0.5%
- inhibition in vivo at 3 mg/kg (Ex 3, [1] 3 mg/kg orally alone): 0%
- inhibition in vivo at 10 mg/kg (Ex 3, [1] 10 mg/kg orally alone): 15.6%
- inhibition in vivo at 10 mg/kg (Ex 4, [1] 10 mg/kg orally alone (I 0 mg/kg)): 44.4%
- inhibition in vivo at 10 mg/kg (Ex 5, [1] 10 mg/kg orally alone (I 0 mg/kg)): 15.2%
- inhibition in vivo at 1 mg/kg (Ex 6, [1] 1 mg/kg orally alone): 16.7%
- inhibition in vivo at 3 mg/kg (Ex 6, [1] 3 mg/kg orally alone): 20.8%
- inhibition in vivo at 10 mg/kg (Ex 6, [1] 10 mg/kg orally alone): 15.6%
- inhibition in vivo at 1 mg/kg (Ex 7, [1] 1 mg/kg orally alone): 16.2%
- inhibition in vivo at 3 mg/kg (Ex 7, [1] 3 mg/kg orally alone): 13.3%
- inhibition in vivo at 10 mg/kg (Ex 7, [1] 10 mg/kg orally alone): 11.4%
- inhibition in vivo at 10 mg/kg (Ex 8, [1] 10 mg/kg orally alone (D 0 mg/kg)): 12.5%
- inhibition in vivo at 10 mg/kg (Ex 9, [1] 10 mg/kg orally alone (D 0 mg/kg)): 25.7%
- inhibition in vivo at 10 mg/kg (Ex 10, [1] 10 mg/kg orally alone (D 0 mg/kg)): 3.2%
- inhibition (anti-inflammatory effect of the 5-LO inhibitor) (summary of Examples 1 to 10, 5-LO inhibitor alone at 1-10 mg/kg orally, variable): 0 to 47%

SMILES: COC1(c2cc(F)cc(Sc3ccc4c(c3)OCC(=O)N4C)c2)CCOCC1 [[2], 4-[5-fluoro-3-(4-methyl-3-oxo-2,3-dihydro-4H-1,4-benzoxazin-7-ylthio)phenyl]-4-methoxytetrahydropyran]
- inhibition in vivo at 3 mg/kg (Ex 11, [2] 3 mg/kg orally alone): 15%
- inhibition in vivo at 10 mg/kg (Ex 11, [2] 10 mg/kg orally alone): 22%
- inhibition in vivo at 30 mg/kg (Ex 11, [2] 30 mg/kg orally alone): 34%
- inhibition in vivo at 30 mg/kg (Ex 12, [2] 30 mg/kg orally alone (I 0 mg/kg)): 27%

SMILES: COC1(c2ccc(Sc3ccc4c(c3)CCC(=O)N4C)s2)CCOCC1 [[3], 4-methoxy-4-[5-(1-methyl-2-oxo-1,2,3,4-tetrahydroquinolin-6-ylthio)thien-2-yl]tetrahydropyran]
- inhibition in vivo at 3 mg/kg (Ex 13, [3] 3 mg/kg orally alone, asterisk (*): not statistically significant): 17%
- inhibition in vivo at 10 mg/kg (Ex 13, [3] 10 mg/kg orally alone): 15%
- inhibition in vivo at 30 mg/kg (Ex 13, [3] 30 mg/kg orally alone, asterisk (*): not statistically significant): 20%

SMILES: COC1(c2cc(F)cc(Sc3ccc4c(c3)CCC(=O)N4C)c2)CCOCC1 [[4], 4-[5-fluoro-3-(1-methyl-2-oxo-1,2,3,4-tetrahydroquinolin-6-ylthio)phenyl]-4-methoxytetrahydropyran]
- inhibition in vivo at 3 mg/kg (Ex 14, [4] 3 mg/kg orally alone, asterisk (*): not statistically significant): 5%
- inhibition in vivo at 10 mg/kg (Ex 14, [4] 10 mg/kg orally alone): 21%
- inhibition in vivo at 30 mg/kg (Ex 14, [4] 30 mg/kg orally alone): 22%

SMILES: COC1(c2cc(F)cc(Sc3ccc(C(F)(F)c4ccc(F)cc4)cc3)c2)CCOCC1 [[5], 4-[5-fluoro-3-(4-(4-fluoro-alpha,alpha-difluorobenzyl)phenylthio)phenyl]-4-methoxytetrahydropyran]
- inhibition in vivo at 3 mg/kg (Ex 15, [5] 3 mg/kg orally alone, asterisk (*): not statistically significant): 11%
- inhibition in vivo at 10 mg/kg (Ex 15, [5] 10 mg/kg orally alone, asterisk (*): not statistically significant): 16%
- inhibition in vivo at 30 mg/kg (Ex 15, [5] 30 mg/kg orally alone, asterisk (*): not statistically significant): 17%

Source: patent EP0485111A2, “The use of lipoxygenase and cyclooxygenase inhibitors as synergistic agents” (ZENECA LIMITED, priority 1990, dated 1992)
